We go through three substances from publication PMC3476531, “Synergy of Peptide and Sugar in O-GlcNAcase Substrate Recognition” (Chemistry & Biology, 2012).

Substitutions are numbered along the chain they refer to.

Type in all cases: biochemical
For one assay, the target named is T1, hOGA Y69Q (Homo sapiens, UniProt O60502, Y69Q).
T1 construct: GST (N); made in house; host or cells: transiently transfected HEK293 cells
T1 sequence (O60502 1-916 Y69Q): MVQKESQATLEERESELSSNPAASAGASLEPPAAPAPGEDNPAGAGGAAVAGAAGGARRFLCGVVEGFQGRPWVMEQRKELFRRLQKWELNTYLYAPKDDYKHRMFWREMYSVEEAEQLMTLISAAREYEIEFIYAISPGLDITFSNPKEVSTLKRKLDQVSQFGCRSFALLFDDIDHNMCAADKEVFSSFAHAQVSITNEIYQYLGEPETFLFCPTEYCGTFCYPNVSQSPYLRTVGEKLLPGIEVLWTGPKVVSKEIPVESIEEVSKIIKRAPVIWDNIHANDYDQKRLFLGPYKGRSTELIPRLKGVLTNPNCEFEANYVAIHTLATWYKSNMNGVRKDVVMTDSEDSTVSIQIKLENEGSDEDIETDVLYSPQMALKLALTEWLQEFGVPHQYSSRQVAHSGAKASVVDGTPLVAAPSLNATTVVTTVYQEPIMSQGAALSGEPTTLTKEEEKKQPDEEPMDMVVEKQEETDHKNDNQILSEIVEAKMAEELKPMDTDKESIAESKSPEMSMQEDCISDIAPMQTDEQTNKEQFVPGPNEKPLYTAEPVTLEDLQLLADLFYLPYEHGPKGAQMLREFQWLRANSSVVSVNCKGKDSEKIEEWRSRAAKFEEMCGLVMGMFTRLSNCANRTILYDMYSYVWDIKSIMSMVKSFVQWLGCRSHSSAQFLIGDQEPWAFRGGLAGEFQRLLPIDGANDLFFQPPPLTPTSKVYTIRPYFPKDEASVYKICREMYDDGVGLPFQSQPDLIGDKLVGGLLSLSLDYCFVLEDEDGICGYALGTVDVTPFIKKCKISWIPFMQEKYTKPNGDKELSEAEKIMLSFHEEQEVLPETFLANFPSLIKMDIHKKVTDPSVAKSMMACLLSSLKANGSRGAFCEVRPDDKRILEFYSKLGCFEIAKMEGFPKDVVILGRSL
In words: hOGA Y69Q mutant glycopeptide hydrolysis, substrate competition assay. As to conditions: hOGA point mutant Y69Q; competition with 4MU-GlcNAc; 37°C, pH 7.4; triplicate; read-out: Michaelis constant (KM) for hOGA Y69Q.

Another assay deals with T2, hOGA Y69F (Homo sapiens, UniProt O60502, Y69F).
T2 construct: GST (N); made in house; host or cells: transiently transfected HEK293 cells
T2 sequence (O60502 1-916 Y69F): T1 sequence (O60502 1-916 Y69Q) with Q69F
In words: hOGA Y69F mutant glycopeptide hydrolysis, substrate competition assay. As to conditions: hOGA point mutant Y69F; competition with 4MU-GlcNAc; 37°C, pH 7.4; triplicate; read-out: Michaelis constant (KM) for hOGA Y69F.

The target of the next assay is T3, hOGA Y69S (Homo sapiens, UniProt O60502, Y69S).
T3 construct: GST (N); made in house; host or cells: transiently transfected HEK293 cells
T3 sequence (O60502 1-916 Y69S): T1 sequence (O60502 1-916 Y69Q) with Q69S
In words: hOGA Y69S mutant glycopeptide hydrolysis, substrate competition assay. As to conditions: hOGA point mutant Y69S; competition with 4MU-GlcNAc; 37°C, pH 7.4; triplicate; read-out: Michaelis constant (KM) for hOGA Y69S.

On to “PVSVPYS(O-GlcNAc)SAQSTS [TAB1 (Ser395) 13, 13-residue O-GlcNAc glycopeptide derived from TAB1 Ser395 site]”, for which the Km (in general, the substrate concentration at which the rate is half of its maximum) at hOGA Y69Q is 3600 µM; on hOGA Y69F, 1100 µM; on hOGA Y69S, more than 4000 µM.
“VAHS(O-GlcNAc)GAK [hOGA (Ser405) 7, 7-residue O-GlcNAc glycopeptide derived from hOGA Ser405 site]”: the Km on hOGA Y69Q was more than 4000 µM; at hOGA Y69F, 1200 µM; at hOGA Y69S it was more than 4000 µM.
For the substance “p53 (Ser149) 11: 11-residue O-GlcNAc glycopeptide derived from p53 Ser149 site”, the Michaelis constant (Km) with hOGA Y69Q was found to be 170 ± 40 µM; with hOGA Y69F, 53 ± 5 µM; in the assay with hOGA Y69S, 290 ± 20 µM.
